Measured values reported in patent US20250195660A1, “INACTIVATING BACTERIA WITH ELECTRIC PULSES AND ANTIBIOTICS” (Purdue Research Foundation, priority 2018, published 2025).
Entries after “also recorded” stand apart in the source; their conditions may differ.

Assays:
[1] = system: bacteria; assay: Low-dose tobramycin combined with a train of NSEPs, bacterium not specified; assay type: cell-based; conditions: 0.2 μg/mL, 1/20th of the recommended clinical dose; whole process approximately 15 min
From the text: (§1) Equipment. Used was a capacitor based Blumlein pulse generator with a spark gap switch to produce trapezoidal EPs of 300 ns duration at the peak with rise and fall times close to 50 ns. Multiple pulses were delivered at a frequency of 1 Hz.
Sample Preparation. These experiments assessed Stapphylococcus aureus (gram positive bacterium number 25923) from ATCC and Esherichia coli (gram negative bacterium number 25922) inoculated in luria broth (LB Broth Lennox, powder microbial growth medium. SIGMA-ALDRICH) by taking 8 mL of broth in a 50 mL sterile conical tube and incubating in a shaker for 20 h at 37° C. The sample was then diluted with fresh Luria broth until attaining an optical density of 0.25 for 100 μL on a photospectrometer (Molecular Devices) for a wavelength of 562 nm as measured in a 96-well plate. The optical density, which varies with growth or tube volume, was determined experimentally and set between 1×10^8 and 1.5×10^8 colony forming units (CFUs)/mL for the samples to be pulsed. […]
(§2) Plated were samples at dilutions of 10^−6 and 10^−3 for low and high electric field treatments, respectively, and at 10^−6 and 10^−5 for controls All samples containing 100 μL of pulsed or diluted cultures were plated on LB agar plates and counted after overnight incubation at 37° C. […]

[2] = system: Esherichia coli (gram negative bacterium number 25922); assay: Inactivation of E. coli by 300 ns electric pulses combined with antibiotic (CFU plating); assay type: cell-based, Escherichia coli; parameters: synergy, E. coli: dose or concentration left out as unconfirmed
Protocol: as §1
The samples were treated in a standard electroporation cuvette (Dot Scientific) whose resistance must match the pulse generator's impedance to prevent pulse reflection. […] Used were 2 mm cuvettes to ensure consistency between tests, and the applied voltage was measured across the cuvette using a LeCroy PPE 20 kV high voltage probe with a 1000:1 attenuation feeding into a TeleDyne LeCroy Waverunner 6 Zi Oscilloscope capable of measuring signals up to 4 GHz. Assuming a purely parallel plate geometry with minimal fringing gives an electric field E=V/d, where V is the peak voltage of the applied pulse and d is the gap distance.
(§3) Sample Preparation. These experiments assessed Stapphylococcus aureus (gram positive bacterium number 25923) from ATCC and Esherichia coli (gram negative bacterium number 25922) inoculated in luria broth (LB Broth Lennox, powder microbial growth medium. SIGMA-ALDRICH) by taking 8 mL of broth in a 50 mL sterile conical tube and incubating in a shaker for 20 h at 37° C. The sample was then diluted with fresh Luria broth until attaining an optical density of 0.25 for 100 μL on a photospectrometer (Molecular Devices) for a wavelength of 562 nm as measured in a 96-well plate. The optical density, which varies with growth or tube volume, was determined experimentally and set between 1×10^8 and 1.5×10^8 colony forming units (CFUs)/mL for the samples to be pulsed. These samples were then plated at dilutions between 10-6 and 100 (no dilution) depending on the effectiveness of the pulse treatments.
(§4) Electric Pulse Treatment Protocol. […] Although no consensus exists on a universal scaling law for applied EP “dose,” we fixed the energy density
(§5) [formula] • where N is the number of pulses and τ is the pulse duration. Fixing U for E=40, 30, and 20 kV/cm gave N=250, 445, and 1000 pulses, respectively. Cultures were plated as described below.
Cuvettes were filled with 365 μL of sample (sufficient to just cover the electrodes) and then 250 μL of molecular biology grade mineral oil was placed on top.
Added were 0.2, 2, and 20 μg/mL of each drug to the initial bacterial dilutions prior to pulsing. Samples were immediately placed on ice to minimize cell division and reduce variability. These aliquots were also used to plate individual unpulsed controls for each drug concentration.
(§6) Plating. Plating was done on standard disposable tissue culture Petri dishes from VWR (15 cm diameter, 10 mm height) and covered with 10 mL of agar in luria broth (Agar, microbiology tested powder, SIGMA-ALDRICH), which was prepared by adding 20 g of LB lennox (SIGMA-ALDRICH) and 15 g/L of agar to water and then autoclaved.
Plated were samples at dilutions of 10^−6 and 10^−3 for low and high electric field treatments, respectively, and at 10^−6 and 10^−5 for controls All samples containing 100 μL of pulsed or diluted cultures were plated on LB agar plates and counted after overnight incubation at 37° C.
Pulsing with drugs: bacterial samples of both gram-positive S. aureus and gram-negative E. coli strains were pulsed in a solution with 0.2, 2, and 20 μg/mL of tobramycin and compared to an un-pulsed drug-exposed control. Pulsing and plating were performed to ensure that the drug exposure time of the bacteria was approximately fifteen minutes.

[3] = system: Stapphylococcus aureus (gram positive bacterium number 25923); assay: Inactivation of S. aureus by 300 ns electric pulses combined with antibiotic (CFU plating); assay type: cell-based, Staphylococcus aureus
Protocol: as §1
The samples were treated in a standard electroporation cuvette (Dot Scientific) whose resistance must match the pulse generator's impedance to prevent pulse reflection. Utilizing Luria broth, containing 0.5% NaCl, in a cuvette with gap distances of 1 mm and 2 mm yielded the best electrical match (no reflections in the measured signal). Used were 2 mm cuvettes to ensure consistency between tests, and the applied voltage was measured across the cuvette using a LeCroy PPE 20 kV high voltage probe with a 1000:1 attenuation feeding into a TeleDyne LeCroy Waverunner 6 Zi Oscilloscope capable of measuring signals up to 4 GHz. Assuming a purely parallel plate geometry with minimal fringing gives an electric field E=V/d, where V is the peak voltage of the applied pulse and d is the gap distance.
as §3, §4, §5
Cuvettes were filled with 365 μL of sample (sufficient to just cover the electrodes) and then 250 μL of molecular biology grade mineral oil was placed on top. Keeping the samples on ice upon achieving the required dilution further reduced experimental variability by slowing biological processes, such as fission This facilitated the assessment of the inactivation efficiency of EPs, drugs, and combined treatments.
Tests used the clinically relevant, bactericidal drug tobramycin, which targets the 30S and 50S ribosome complex and has a clinical dose from 4 to 5 μg/mL and rifampicin, which inhibits bacterial […]. Added were 0.2, 2, and 20 μg/mL of each drug to the initial bacterial dilutions prior to pulsing. Samples were immediately placed on ice to minimize cell division and reduce variability. These aliquots were also used to plate individual unpulsed controls for each drug concentration.
as §6, §2

[4] = same energy, different electric fields and number of pulses, different concentrations, vs antibiotic alone

NC[C@H]1O[C@H](O[C@H]2[C@H](O)[C@@H](O[C@H]3O[C@H](CO)[C@@H](O)[C@H](N)[C@H]3O)[C@H](N)C[C@@H]2N)[C@H](N)C[C@@H]1O [tobramycin]
synergy with NSEPs [1]: Synergy occurred
synergy, E. coli ([2]; 20 kV/cm treatment): did not
synergy, E. coli ([2]; 30 and 40 kV/cm treatments): exhibited synergy
reduction of E. coli ([2]; 40 kV/cm EPs combined with antibiotic, considered complete sterilization): over 9 log-10
synergy, E. coli ([2]; any of the applied electric fields, any concentration (FIG. 5B)): experienced synergy
effect of combining trains of 300 ns EPs with antibiotic on amount of viable E. coli [2, 4]: synergistically reduced; also recorded: significantly greater inactivation
reduction in S. aureus population ([3]; 20 kV/cm EPs + 0.2 μg/mL): 10-20%
log-reduction of S. aureus ([3]; 20 kV/cm EPs + 2 μg/mL): 1.5 log
log-reduction of S. aureus ([3]; 20 kV/cm EPs + 20 μg/mL): 2.6 log
synergy (additional inactivation induced by the antimicrobial for a given pulse condition), S. aureus ([3]; 20 kV/cm pulse trains, 0.2 μg/mL): no synergy
synergy, S. aureus ([3]; 20 kV/cm pulse trains, 2.0 μg/mL): 1.5 log
synergy, S. aureus ([3]; 30 and 40 kV/cm pulse trains, 2 and 20 μg/mL doses): synergies occurred
effect of combining trains of 300 ns EPs with antibiotic on amount of viable S. aureus [3, 4]: synergistically reduced; also recorded: significantly greater inactivation
